Laboratory results as given in patent US11000033B2, “Ketone or oxime compound, and herbicide” (NISSAN CHEMICAL CORPORATION, priority 2014, dated 2021).

Columns and labels:
Assay type in all cases: in vivo
transplanted rice plant = assay: Test Example 1: effect on crop, application before weed generation in submerged conditions (symbol a); details: application herbicide amount 320 g/ha
How it was run: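 Alluvial soil pots flooded to 4 cm water, sown with Echinochloa oryzacola, Scirpus juncoides and Monochoria vaginalis, then transplanted with 2.5 leaf stage rice seedlings; pre-emergence application. Greenhouse 25° C. to 30° C.; scored 0–5 by herbicidal ratio 3 weeks after application.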

[1] = tested on: Echinochloa crus-galli var. crus-galli; assay: Test Example 3: herbicidal effect by foliage application, Wagner pot (symbol H); details: application herbicide amount 320 g/ha
How it was run: (§1)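 Steps: fill pot with alluvial soil; add water to 0.1–0.5 cm depth; sow weed and rice seed; grow 14 days at 25–30 °C; spray diluted emulsion over the leaves; rate effect after 3 weeks.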

Leptochloa chinensis = assay: Test Example 3: herbicidal effect by foliage application, Wagner pot (symbol D); details: application herbicide amount 320 g/ha
How it was run: as §1

[2] = tested on: directly sowed rice plant; assay: Test Example 3: effect on crop by foliage application, Wagner pot (symbol b); details: application herbicide amount 320 g/ha
How it was run: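 Greenhouse culture at 25–30 °C of seeded rice, Cyperus difformis, Leptochloa chinensis and Echinochloa crus-galli var. crus-galli, in alluvial soil held under 0.1–0.5 cm of water in a Wagner pot.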

Digitaria ciliaris = assay: Test Example 4: herbicidal effect by soil treatment (symbol F); details: application herbicide amount 320 g/ha
How it was run: (§2)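 Seeds were sown in sterilized diluvial soil, covered with about 1.5 cm of soil, and the soil surface was sprayed with a water-diluted emulsion of the compound at a predetermined rate. Plants grew in a greenhouse at 25° C. to 30° C.; effects were scored visually 3 weeks after application.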

Setaria viridis [3] = assay: Test Example 4: herbicidal effect by soil treatment (symbol G); details: application herbicide amount 320 g/ha
How it was run: as §2

Lolium multiflorum Lam. = assay: Test Example 4: herbicidal effect by soil treatment (symbol K); details: application herbicide amount 320 g/ha
How it was run: as §2

Apera spica-venti [4] = assay: Test Example 4: herbicidal effect by soil treatment (symbol L); details: application herbicide amount 320 g/ha
How it was run: as §2

Abutilon theophrasti [5] = assay: Test Example 4: herbicidal effect by soil treatment (symbol M); details: application herbicide amount 320 g/ha
How it was run: as §2

Amaranthus retroflexus = assay: Test Example 4: herbicidal effect by soil treatment (symbol N); details: application herbicide amount 320 g/ha
How it was run: as §2

Chenopodium album = assay: Test Example 4: herbicidal effect by soil treatment (symbol O); details: application herbicide amount 320 g/ha
How it was run: as §2

Stellaria media [6] = assay: Test Example 4: herbicidal effect by soil treatment (symbol P); details: application herbicide amount 320 g/ha
How it was run: as §2

Galium spurium = assay: Test Example 4: herbicidal effect by soil treatment (symbol Q); details: application herbicide amount 320 g/ha
How it was run: as §2

Veronica persica = assay: Test Example 4: herbicidal effect by soil treatment (symbol R); details: application herbicide amount 320 g/ha
How it was run: as §2

Setaria viridis [7] = assay: Test Example 5: herbicidal effect by foliage application, plastic box (symbol G); details: 320 g/ha, 3 weeks after application
How it was run: (§3)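 After sowing into sterilized diluvial soil and growing two weeks under glass at 25° C. to 30° C., seedlings receive a uniform foliar spray of diluted emulsion. Damage is judged visually three weeks on.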

[8] = tested on: Echinochloa crus-galli var. crus-galli; assay: Test Example 5: herbicidal effect by foliage application, plastic box (symbol H); details: 320 g/ha, 3 weeks after application
How it was run: as §3

Avena fatua = assay: Test Example 5: herbicidal effect by foliage application, plastic box (symbol I); details: 320 g/ha, 3 weeks after application
How it was run: as §3

Apera spica-venti [9] = assay: Test Example 5: herbicidal effect by foliage application, plastic box (symbol L); details: 320 g/ha, 3 weeks after application
How it was run: as §3

Abutilon theophrasti [10] = assay: Test Example 5: herbicidal effect by foliage application, plastic box (symbol M); details: 320 g/ha, 3 weeks after application
How it was run: as §3

Stellaria media [11] = assay: Test Example 5: herbicidal effect by foliage application, plastic box (symbol P); details: 320 g/ha, 3 weeks after application
How it was run: as §3

rice plant = assay: Test Example 5: effect on crop by foliage application, plastic box (symbol b); details: 320 g/ha, 3 weeks after application
How it was run: (§4)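 In a plastic box 7 cm deep filled with sterilized diluvial soil, seeds of crops and weeds such as Digitaria ciliaris, Avena fatua and Amaranthus retroflexus are sown in spots and covered with about 1.5 cm of soil before greenhouse growth at 25–30° C.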

beet = assay: Test Example 5: effect on crop by foliage application, plastic box (symbol f); details: 320 g/ha, 3 weeks after application
How it was run: as §4

rapeseed = assay: Test Example 5: effect on crop by foliage application, plastic box (symbol g); details: 320 g/ha, 3 weeks after application
How it was run: as §4

CCc1cc(-c2ccc(Cl)cc2)cc(C)c1C1=C(OC(=O)N2CCOCC2)CC(CC(C)=NOC)C1=O (mixture of isomers) [6-064]
Effect grade on crop, a: transplanted rice plant (transplanted rice plant): 5 (Herbicidal ratio of 90% or more (almost completely withered))
herbicidal effect on H (Echinochloa crus-galli var. crus-galli), grade 0-5 [1]: 5 (Herbicidal ratio of 90% or more (almost completely withered))
herbicidal effect on D (Leptochloa chinensis), grade 0-5 (Leptochloa chinensis): 5 (Herbicidal ratio of 90% or more (almost completely withered))
effect on crop b (directly sowed rice plant), grade 0-5 [2]: 4 (Herbicidal ratio of 70% or higher and lower than 90%)
F: Digitaria ciliaris, herbicidal effect grade (Digitaria ciliaris): 5 (Herbicidal ratio of 90% or more (almost completely withered))
G: Setaria viridis, herbicidal effect grade (Setaria viridis [3]): 5 (Herbicidal ratio of 90% or more (almost completely withered))
K: Lolium multiflorum Lam., herbicidal effect grade (Lolium multiflorum Lam.): 0 (Herbicidal ratio of 5% or lower (almost no effect))
L: Apera spica-venti, herbicidal effect grade (Apera spica-venti [4]): 5 (Herbicidal ratio of 90% or more (almost completely withered))
M: Abutilon theophrasti, herbicidal effect grade (Abutilon theophrasti [5]): 0 (Herbicidal ratio of 5% or lower (almost no effect))
N: Amaranthus retroflexus, herbicidal effect grade (Amaranthus retroflexus): 0 (Herbicidal ratio of 5% or lower (almost no effect))
O: Chenopodium album, herbicidal effect grade (Chenopodium album): 0 (Herbicidal ratio of 5% or lower (almost no effect))
P: Stellaria media, herbicidal effect grade (Stellaria media [6]): 0 (Herbicidal ratio of 5% or lower (almost no effect))
Q: Galium spurium, herbicidal effect grade (Galium spurium): 0 (Herbicidal ratio of 5% or lower (almost no effect))
R: Veronica persica, herbicidal effect grade (Veronica persica): 0 (Herbicidal ratio of 5% or lower (almost no effect))
G: Setaria viridis, herbicidal effect (criteria of Test Example 1) (Setaria viridis [7]): 5 (Herbicidal ratio of 90% or more (almost completely withered))
H: Echinochloa crus-galli var. crus-galli, herbicidal effect (criteria of Test Example 1) [8]: 5 (Herbicidal ratio of 90% or more (almost completely withered))
I: Avena fatua, herbicidal effect (criteria of Test Example 1) (Avena fatua): 5 (Herbicidal ratio of 90% or more (almost completely withered))
L: Apera spica-venti, herbicidal effect (criteria of Test Example 1) (Apera spica-venti [9]): 5 (Herbicidal ratio of 90% or more (almost completely withered))
M: Abutilon theophrasti, herbicidal effect (criteria of Test Example 1) (Abutilon theophrasti [10]): 4 (Herbicidal ratio of 70% or higher and lower than 90%)
P: Stellaria media, herbicidal effect (criteria of Test Example 1) (Stellaria media [11]): 0 (Herbicidal ratio of 5% or lower (almost no effect))
b: directly sowed rice plant, effect on crop (criteria of Test Example 1) (rice plant): 5 (Herbicidal ratio of 90% or more (almost completely withered))
f: beet, effect on crop (criteria of Test Example 1) (beet): 0 (Herbicidal ratio of 5% or lower (almost no effect))
g: rapeseed, effect on crop (criteria of Test Example 1) (rapeseed): 3 (Herbicidal ratio of 40% or higher and lower than 70%)

CON=C(C)CC1CC(O)=C(c2c(C)cc(Oc3ccccc3)cc2C)C1=O (stereo not drawn) [6-052]
Effect grade on crop, a: transplanted rice plant (transplanted rice plant): 3 (Herbicidal ratio of 40% or higher and lower than 70%)
herbicidal effect on H (Echinochloa crus-galli var. crus-galli), grade 0-5 [1]: 5 (Herbicidal ratio of 90% or more (almost completely withered))
herbicidal effect on D (Leptochloa chinensis), grade 0-5 (Leptochloa chinensis): 5 (Herbicidal ratio of 90% or more (almost completely withered))
effect on crop b (directly sowed rice plant), grade 0-5 [2]: 5 (Herbicidal ratio of 90% or more (almost completely withered))
F: Digitaria ciliaris, herbicidal effect grade (Digitaria ciliaris): 4 (Herbicidal ratio of 70% or higher and lower than 90%)
G: Setaria viridis, herbicidal effect grade (Setaria viridis [3]): 3 (Herbicidal ratio of 40% or higher and lower than 70%)
K: Lolium multiflorum Lam., herbicidal effect grade (Lolium multiflorum Lam.): 0 (Herbicidal ratio of 5% or lower (almost no effect))
L: Apera spica-venti, herbicidal effect grade (Apera spica-venti [4]): 5 (Herbicidal ratio of 90% or more (almost completely withered))
M: Abutilon theophrasti, herbicidal effect grade (Abutilon theophrasti [5]): 0 (Herbicidal ratio of 5% or lower (almost no effect))
N: Amaranthus retroflexus, herbicidal effect grade (Amaranthus retroflexus): 0 (Herbicidal ratio of 5% or lower (almost no effect))
O: Chenopodium album, herbicidal effect grade (Chenopodium album): 0 (Herbicidal ratio of 5% or lower (almost no effect))
P: Stellaria media, herbicidal effect grade (Stellaria media [6]): 2 (Herbicidal ratio of 20% or higher and lower than 40%)
Q: Galium spurium, herbicidal effect grade (Galium spurium): 0 (Herbicidal ratio of 5% or lower (almost no effect))
R: Veronica persica, herbicidal effect grade (Veronica persica): 0 (Herbicidal ratio of 5% or lower (almost no effect))
G: Setaria viridis, herbicidal effect grade (Setaria viridis [7]): 5 (Herbicidal ratio of 90% or more (almost completely withered))
H: Echinochloa crus-galli var. crus-galli, herbicidal effect grade [8]: 5 (Herbicidal ratio of 90% or more (almost completely withered))
I: Avena fatua, herbicidal effect grade (Avena fatua): 2 (Herbicidal ratio of 20% or higher and lower than 40%)
L: Apera spica-venti, herbicidal effect grade (Apera spica-venti [9]): 4 (Herbicidal ratio of 70% or higher and lower than 90%)
M: Abutilon theophrasti, herbicidal effect grade (Abutilon theophrasti [10]): 0 (Herbicidal ratio of 5% or lower (almost no effect))
P: Stellaria media, herbicidal effect grade (Stellaria media [11]): 0 (Herbicidal ratio of 5% or lower (almost no effect))
b: directly sowed rice plant, effect on crop grade (rice plant): 5 (Herbicidal ratio of 90% or more (almost completely withered))
f: beet, effect on crop grade (beet): 0 (Herbicidal ratio of 5% or lower (almost no effect))
g: rapeseed, effect on crop grade (rapeseed): 3 (Herbicidal ratio of 40% or higher and lower than 70%)

CON=C(C)CC1CC(O)=C(c2c(C)cc(OC)cc2C)C1=O (stereo not drawn) [6-055]
Effect grade on crop, a: transplanted rice plant (transplanted rice plant): 5 (Herbicidal ratio of 90% or more (almost completely withered))
herbicidal effect on H (Echinochloa crus-galli var. crus-galli), grade 0-5 [1]: 5 (Herbicidal ratio of 90% or more (almost completely withered))
herbicidal effect on D (Leptochloa chinensis), grade 0-5 (Leptochloa chinensis): 5 (Herbicidal ratio of 90% or more (almost completely withered))
effect on crop b (directly sowed rice plant), grade 0-5 [2]: 5 (Herbicidal ratio of 90% or more (almost completely withered))
F: Digitaria ciliaris, herbicidal effect grade (Digitaria ciliaris): 5 (Herbicidal ratio of 90% or more (almost completely withered))
G: Setaria viridis, herbicidal effect grade (Setaria viridis [3]): 5 (Herbicidal ratio of 90% or more (almost completely withered))
K: Lolium multiflorum Lam., herbicidal effect grade (Lolium multiflorum Lam.): 5 (Herbicidal ratio of 90% or more (almost completely withered))
L: Apera spica-venti, herbicidal effect grade (Apera spica-venti [4]): 5 (Herbicidal ratio of 90% or more (almost completely withered))
M: Abutilon theophrasti, herbicidal effect grade (Abutilon theophrasti [5]): 3 (Herbicidal ratio of 40% or higher and lower than 70%)
N: Amaranthus retroflexus, herbicidal effect grade (Amaranthus retroflexus): 0 (Herbicidal ratio of 5% or lower (almost no effect))
O: Chenopodium album, herbicidal effect grade (Chenopodium album): 0 (Herbicidal ratio of 5% or lower (almost no effect))
P: Stellaria media, herbicidal effect grade (Stellaria media [6]): 0 (Herbicidal ratio of 5% or lower (almost no effect))
Q: Galium spurium, herbicidal effect grade (Galium spurium): 0 (Herbicidal ratio of 5% or lower (almost no effect))
R: Veronica persica, herbicidal effect grade (Veronica persica): 0 (Herbicidal ratio of 5% or lower (almost no effect))
G: Setaria viridis, herbicidal effect (criteria of Test Example 1) (Setaria viridis [7]): 5 (Herbicidal ratio of 90% or more (almost completely withered))
H: Echinochloa crus-galli var. crus-galli, herbicidal effect (criteria of Test Example 1) [8]: 5 (Herbicidal ratio of 90% or more (almost completely withered))
I: Avena fatua, herbicidal effect (criteria of Test Example 1) (Avena fatua): 5 (Herbicidal ratio of 90% or more (almost completely withered))
L: Apera spica-venti, herbicidal effect (criteria of Test Example 1) (Apera spica-venti [9]): 5 (Herbicidal ratio of 90% or more (almost completely withered))
M: Abutilon theophrasti, herbicidal effect (criteria of Test Example 1) (Abutilon theophrasti [10]): 1 (Herbicidal ratio of 5% or higher and lower than 20%)
P: Stellaria media, herbicidal effect (criteria of Test Example 1) (Stellaria media [11]): 4 (Herbicidal ratio of 70% or higher and lower than 90%)
b: directly sowed rice plant, effect on crop (criteria of Test Example 1) (rice plant): 5 (Herbicidal ratio of 90% or more (almost completely withered))
f: beet, effect on crop (criteria of Test Example 1) (beet): 0 (Herbicidal ratio of 5% or lower (almost no effect))
g: rapeseed, effect on crop (criteria of Test Example 1) (rapeseed): 5 (Herbicidal ratio of 90% or more (almost completely withered))
